Test results from paper PMC6407917, “Identification of GSK3186899/DDD853651 as a Preclinical Development Candidate for the Treatment of Visceral Leishmaniasis” (Journal of Medicinal Chemistry, 2018).

Assays:
Test in all cases: biochemical
Design in all cases: species or system HEK293/K-562/placenta mixed human extract; Kinobeads chemoproteomic competition binding, quantified by TMT LC-MS/MS, dose response up to 20 uM
[1] = target: AKT2 (Homo sapiens, UniProt P31751)
[2] = target: AURKA (Homo sapiens, UniProt O14965)
[3] = target: BRSK2 (Homo sapiens, UniProt Q8IWQ3)
[4] = target: CDK5 (Homo sapiens, UniProt Q00535)
[5] = target: CDK7 (Homo sapiens, UniProt P50613)
[6] = target: CLK1 (Homo sapiens, UniProt P49759)
[7] = target: EPHA5 (Homo sapiens, UniProt P54756)
[8] = target: FGR (Homo sapiens, UniProt P09769)
[9] = target: HCK (Homo sapiens, UniProt P08631)
[10] = target: IRAK1 (Homo sapiens, UniProt P51617)
[11] = target: JAK2 (Homo sapiens, UniProt O60674)
[12] = target: MAP3K2 (Homo sapiens, UniProt Q9Y2U5)
[13] = target: MAP3K6 (Homo sapiens, UniProt O95382)
[14] = target: MAP4K5 (Homo sapiens, UniProt Q9Y4K4)
[15] = target: MARK4 (Homo sapiens, UniProt Q96L34)
[16] = target: PDXK (Homo sapiens, UniProt O00764)
[17] = target: PIK3C2B (Homo sapiens, UniProt O00750)
[18] = target: PIK3C3 (Homo sapiens, UniProt Q8NEB9)
[19] = target: PIP4K2B (Homo sapiens, UniProt P78356)
[20] = target: PRKCD (Homo sapiens, UniProt Q05655)
[21] = target: SIK1 (Homo sapiens, UniProt P57059)
Chain of SIK1 (P57059 whole entry): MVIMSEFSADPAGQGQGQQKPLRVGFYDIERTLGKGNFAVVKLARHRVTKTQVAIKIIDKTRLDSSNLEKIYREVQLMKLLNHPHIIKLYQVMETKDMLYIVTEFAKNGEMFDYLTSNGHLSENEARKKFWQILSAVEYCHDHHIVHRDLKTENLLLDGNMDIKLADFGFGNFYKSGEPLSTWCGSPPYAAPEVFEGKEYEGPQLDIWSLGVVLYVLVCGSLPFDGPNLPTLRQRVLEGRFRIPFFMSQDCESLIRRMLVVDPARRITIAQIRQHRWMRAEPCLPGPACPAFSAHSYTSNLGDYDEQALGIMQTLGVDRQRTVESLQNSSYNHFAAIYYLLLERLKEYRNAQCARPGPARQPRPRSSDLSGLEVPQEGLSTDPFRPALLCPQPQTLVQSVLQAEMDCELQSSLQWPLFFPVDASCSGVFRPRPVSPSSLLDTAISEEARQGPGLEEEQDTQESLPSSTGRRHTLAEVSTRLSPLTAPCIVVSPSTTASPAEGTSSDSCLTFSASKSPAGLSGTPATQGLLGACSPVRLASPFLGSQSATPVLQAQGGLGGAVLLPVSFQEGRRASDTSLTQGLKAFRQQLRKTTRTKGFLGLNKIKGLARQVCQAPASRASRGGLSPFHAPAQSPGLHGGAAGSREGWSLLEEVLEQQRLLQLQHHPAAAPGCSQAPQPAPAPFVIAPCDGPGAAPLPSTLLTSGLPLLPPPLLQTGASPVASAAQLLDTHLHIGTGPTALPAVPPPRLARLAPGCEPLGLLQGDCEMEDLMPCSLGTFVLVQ

Chain of PDXK (O00764 whole entry): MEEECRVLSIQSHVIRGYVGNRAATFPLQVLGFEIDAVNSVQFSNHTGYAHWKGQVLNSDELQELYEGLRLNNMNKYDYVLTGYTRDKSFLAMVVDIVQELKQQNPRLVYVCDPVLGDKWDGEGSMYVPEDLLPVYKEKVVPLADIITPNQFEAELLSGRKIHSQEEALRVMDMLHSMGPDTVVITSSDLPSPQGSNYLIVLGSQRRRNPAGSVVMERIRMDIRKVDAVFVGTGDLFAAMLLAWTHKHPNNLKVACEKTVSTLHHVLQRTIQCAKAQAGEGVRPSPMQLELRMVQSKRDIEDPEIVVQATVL
Chain of PIP4K2B (P78356 whole entry): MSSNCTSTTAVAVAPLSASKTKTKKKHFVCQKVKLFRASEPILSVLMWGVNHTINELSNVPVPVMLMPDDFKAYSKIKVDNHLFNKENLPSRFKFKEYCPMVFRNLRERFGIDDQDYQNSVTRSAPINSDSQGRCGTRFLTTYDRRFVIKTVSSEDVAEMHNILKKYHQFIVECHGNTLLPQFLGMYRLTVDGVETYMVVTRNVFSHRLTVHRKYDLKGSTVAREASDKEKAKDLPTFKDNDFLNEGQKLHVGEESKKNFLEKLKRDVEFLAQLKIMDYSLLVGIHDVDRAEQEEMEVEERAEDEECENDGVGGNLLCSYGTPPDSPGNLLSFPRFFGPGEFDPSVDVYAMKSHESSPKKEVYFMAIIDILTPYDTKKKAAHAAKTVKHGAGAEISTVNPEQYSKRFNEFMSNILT
Chain of MARK4 (Q96L34 whole entry): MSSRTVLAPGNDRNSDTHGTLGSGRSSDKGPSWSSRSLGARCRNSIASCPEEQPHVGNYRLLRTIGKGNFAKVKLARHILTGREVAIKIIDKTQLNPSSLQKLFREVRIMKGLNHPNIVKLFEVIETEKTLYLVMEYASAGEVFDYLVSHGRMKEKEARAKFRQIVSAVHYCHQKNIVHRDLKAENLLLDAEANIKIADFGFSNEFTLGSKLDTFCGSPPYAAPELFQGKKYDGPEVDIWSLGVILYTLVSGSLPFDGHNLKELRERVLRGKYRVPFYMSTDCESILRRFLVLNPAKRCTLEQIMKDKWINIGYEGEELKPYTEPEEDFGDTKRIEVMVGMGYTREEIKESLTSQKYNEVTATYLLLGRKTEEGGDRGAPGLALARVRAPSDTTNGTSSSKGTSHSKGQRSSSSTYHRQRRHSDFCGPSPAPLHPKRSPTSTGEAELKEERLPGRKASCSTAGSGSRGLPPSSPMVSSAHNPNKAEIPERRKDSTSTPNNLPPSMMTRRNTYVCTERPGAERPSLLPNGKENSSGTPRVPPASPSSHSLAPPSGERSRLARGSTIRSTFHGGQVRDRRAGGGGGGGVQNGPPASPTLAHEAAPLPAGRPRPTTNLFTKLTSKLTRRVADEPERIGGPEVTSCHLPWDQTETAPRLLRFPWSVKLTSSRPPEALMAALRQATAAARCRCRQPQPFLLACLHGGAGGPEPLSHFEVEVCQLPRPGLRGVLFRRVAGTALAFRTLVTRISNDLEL
Chain of JAK2 (O60674 whole entry): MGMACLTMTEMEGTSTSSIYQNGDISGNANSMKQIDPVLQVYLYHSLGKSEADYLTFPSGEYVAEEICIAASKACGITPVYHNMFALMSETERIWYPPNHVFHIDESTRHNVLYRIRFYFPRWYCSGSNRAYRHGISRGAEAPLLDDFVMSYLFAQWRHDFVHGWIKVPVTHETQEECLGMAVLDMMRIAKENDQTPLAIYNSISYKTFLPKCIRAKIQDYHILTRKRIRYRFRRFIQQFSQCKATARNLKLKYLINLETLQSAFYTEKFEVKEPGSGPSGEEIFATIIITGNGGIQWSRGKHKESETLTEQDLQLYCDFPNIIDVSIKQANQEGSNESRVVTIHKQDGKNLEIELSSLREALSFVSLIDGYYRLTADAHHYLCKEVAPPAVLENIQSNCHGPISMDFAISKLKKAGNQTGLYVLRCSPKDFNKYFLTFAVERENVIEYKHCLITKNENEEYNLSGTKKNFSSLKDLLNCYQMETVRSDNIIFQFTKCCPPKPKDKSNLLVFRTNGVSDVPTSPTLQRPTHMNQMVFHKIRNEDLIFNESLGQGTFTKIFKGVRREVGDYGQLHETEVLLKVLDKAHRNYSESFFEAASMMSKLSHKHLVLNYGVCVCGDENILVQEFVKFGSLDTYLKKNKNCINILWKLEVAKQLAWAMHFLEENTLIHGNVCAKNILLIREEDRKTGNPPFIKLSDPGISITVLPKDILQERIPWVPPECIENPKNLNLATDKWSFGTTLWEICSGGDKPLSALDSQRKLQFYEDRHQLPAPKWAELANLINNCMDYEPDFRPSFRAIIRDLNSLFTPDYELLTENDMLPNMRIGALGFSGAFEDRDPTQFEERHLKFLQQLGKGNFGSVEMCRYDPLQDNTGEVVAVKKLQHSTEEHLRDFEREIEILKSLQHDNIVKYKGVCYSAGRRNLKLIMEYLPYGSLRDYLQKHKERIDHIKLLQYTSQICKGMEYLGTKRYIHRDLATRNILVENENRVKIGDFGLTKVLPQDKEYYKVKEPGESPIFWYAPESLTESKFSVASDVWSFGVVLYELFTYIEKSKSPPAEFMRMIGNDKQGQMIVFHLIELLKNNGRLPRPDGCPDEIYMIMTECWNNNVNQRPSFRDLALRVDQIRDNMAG
Chain of BRSK2 (Q8IWQ3 whole entry): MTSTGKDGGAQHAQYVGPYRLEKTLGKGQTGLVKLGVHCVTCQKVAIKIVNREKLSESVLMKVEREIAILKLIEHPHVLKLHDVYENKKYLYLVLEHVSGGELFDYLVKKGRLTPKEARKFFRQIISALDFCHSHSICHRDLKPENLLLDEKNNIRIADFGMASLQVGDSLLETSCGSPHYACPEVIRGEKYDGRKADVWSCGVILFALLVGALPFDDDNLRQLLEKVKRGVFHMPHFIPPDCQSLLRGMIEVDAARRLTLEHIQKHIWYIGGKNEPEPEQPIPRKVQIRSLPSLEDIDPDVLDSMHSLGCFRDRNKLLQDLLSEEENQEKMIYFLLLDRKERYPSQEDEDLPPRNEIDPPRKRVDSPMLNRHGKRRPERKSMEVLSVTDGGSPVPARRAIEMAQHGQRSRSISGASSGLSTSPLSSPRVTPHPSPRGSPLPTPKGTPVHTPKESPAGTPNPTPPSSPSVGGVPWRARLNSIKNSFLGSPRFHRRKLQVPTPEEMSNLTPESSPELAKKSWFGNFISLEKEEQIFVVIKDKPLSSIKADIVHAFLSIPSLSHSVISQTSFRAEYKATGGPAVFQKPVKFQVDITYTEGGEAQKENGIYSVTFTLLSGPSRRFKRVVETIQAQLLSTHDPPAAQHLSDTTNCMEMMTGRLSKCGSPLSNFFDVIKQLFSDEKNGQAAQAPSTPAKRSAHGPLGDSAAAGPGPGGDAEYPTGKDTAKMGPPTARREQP
Chain of MAP4K5 (Q9Y4K4 whole entry): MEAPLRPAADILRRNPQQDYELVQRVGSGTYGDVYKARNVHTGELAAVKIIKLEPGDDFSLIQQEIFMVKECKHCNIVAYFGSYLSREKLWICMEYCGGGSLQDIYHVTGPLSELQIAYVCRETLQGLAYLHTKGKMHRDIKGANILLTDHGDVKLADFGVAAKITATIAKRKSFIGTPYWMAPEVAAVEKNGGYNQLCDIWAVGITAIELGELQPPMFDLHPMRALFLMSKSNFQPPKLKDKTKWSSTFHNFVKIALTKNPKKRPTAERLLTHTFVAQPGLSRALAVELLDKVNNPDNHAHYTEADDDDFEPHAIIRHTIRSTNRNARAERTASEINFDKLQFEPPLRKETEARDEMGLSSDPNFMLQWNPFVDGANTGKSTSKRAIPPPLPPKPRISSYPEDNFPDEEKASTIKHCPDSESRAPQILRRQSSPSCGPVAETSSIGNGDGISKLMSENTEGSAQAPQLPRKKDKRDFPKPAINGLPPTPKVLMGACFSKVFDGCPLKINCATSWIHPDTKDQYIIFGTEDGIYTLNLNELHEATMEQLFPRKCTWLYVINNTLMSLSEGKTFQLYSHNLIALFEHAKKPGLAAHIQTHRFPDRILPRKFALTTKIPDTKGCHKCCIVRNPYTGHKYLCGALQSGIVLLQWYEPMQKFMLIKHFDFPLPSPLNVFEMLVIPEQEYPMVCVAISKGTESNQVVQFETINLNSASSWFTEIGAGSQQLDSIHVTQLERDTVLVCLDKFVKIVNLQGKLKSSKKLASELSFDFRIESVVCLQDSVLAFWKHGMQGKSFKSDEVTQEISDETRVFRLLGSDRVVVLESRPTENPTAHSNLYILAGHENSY

IC50 [1]: ≥ 20 µM | IC50 [2]: ≥ 20 µM | IC50 [3]: ≥ 20 µM | IC50 [4]: 1.2 µM | IC50 [5]: ≥ 20 µM | IC50 [6]: ≥ 20 µM | IC50 [7]: ≥ 20 µM | IC50 [8]: ≥ 20 µM | IC50 [9]: ≥ 20 µM | IC50 [10]: ≥ 20 µM | IC50 [11]: ≥ 20 µM | IC50 [12]: ≥ 20 µM | IC50 [13]: ≥ 20 µM | IC50 [14]: ≥ 20 µM | IC50 [15]: ≥ 20 µM | IC50 [16]: ≥ 20 µM | IC50 [17]: ≥ 20 µM | IC50 [18]: ≥ 20 µM | IC50 [19]: 9.4 µM | IC50 [20]: ≥ 20 µM | IC50 [21]: ≥ 20 µM
Structure (SMILES): COc1ccccc1-c1n[nH]c2nc(N[C@H]3CC[C@H](NS(=O)(=O)CCC(F)(F)F)CC3)nc(OC)c12 [compound 31, 3,3,3-Trifluoro-N-(trans-4-((4-methoxy-3-(2-methoxyphenyl)-1H-pyrazolo[3,4-d]pyrimidin-6-yl)amino)cyclohexyl)propane-1-sulfonamide]
